# According to paper PMC7403315, “Cyclic peptide FXII inhibitor provides safe anticoagulation in a thrombosis model and in artificial lungs” (Nature Communications, 2020):
# Several values for one entry are separate records, joined by “and”; a condition that tells them apart may be missing. Identical values can stand only once. Entries after “also recorded” stand apart in the source; their conditions may differ. Residues, ends and D or L forms follow the SMILES beside them.
# Assays:
# [1] = test system: FXIIa; conditions: cited from earlier work
# [2] = test system: ferric chloride-induced thrombosis; assay: FeCl3 injury thrombosis model in mesenteric arterioles in mice; type: in vivo, mouse
# Method: A model of thrombosis in mesenteric arterioles using intravital microscopy was performed according to Angelillo-Scherrer A. et al.[46] with minor modifications. C57BL/6J wild-type mice (male, 10–20 weeks old, 25–30 g, Charles River) were injected intravenously with Rhodamine 6G (100 μl, 1 mM, ACROS Organics product 41902) to fluorescently label the platelets and leucocytes. The mice were injected subcutaneously over the shoulders with FXII900 (5 or 25 mg kg^−1, 0.5 mg ml^−1 in PBS, pH = 7.4) or the negative control FXII901 (5 or 25 mg kg^−1, 0.5 mg ml^−1 in PBS, pH = 7.4), or intravenously (retro-orbital) with 200 IU kg^−1 heparin, and subsequently anesthetized with ketamine (80 mg kg^−1) and xylazine (16 mg kg^−1) via intraperitoneal injection. An abdominal midline incision was made to expose the mesenteric arterioles which were imaged by intravital microscopy using a Mikron IVM500 microscope (Mikron Instruments) coupled with a 50 W mercury lamp (HBO 50 microscope illuminator, Zeiss) attached to combined blue (exciter 455DF70, dichroic 515DRLP, and emitter 515ALP) and green (exciter 525DF45, dichroic 560DRLP, and emitter 565ALP) filter blocks. […] The blood flow, clot formation and vessel occlusion were monitored for 20 or 25 min wherein images were recorded every minute using a digital video cassette recorder (DSR-11, Sony) and analyzed using ImageJ software (version 1.52). Mice were euthanized by final bleeding and cervical dislocation. Time to clot formation and full occlusion of the blood vessel were determined as follows. Clot formation was defined as the formation of a clear aggregation with a diameter of around 10 µm or larger. Occlusion was defined as a clot covering the full diameter of the vessel. Mice showing no speckled pattern at the site of FeCl3 application were assumed to be not injured at the blood vessel and were excluded from the analysis.
# [3] = test system: hemostasis (tail bleeding); assay: Tail bleeding time and volume (tail transection); conditions: mice, 2 mm tail transection, peptides 25 mg kg^−1 SC, heparin 200 IU kg^−1 IV
# Method: Mice (8- to 10-week-old) were anesthetized with pentobarbital (50 mg kg^−1, IP), treated with PBS (IV, retro-orbital), 200 IU kg^−1 heparin (IV, retro-orbital), 25 mg kg^−1 FXII900 (SC) or 25 mg kg^−1 FXII901 (SC), and put on a 37 °C heating pad. After 5 min, the distal tail was transected at 2 mm with a disposable surgical blade, and the diameter measured to confirm that it is > 1 mm. The tail was placed in a 50 ml falcon tube filled with phosphate-buffered saline (warmed to 37 °C) and the bleeding time was recorded. The total blood loss was determined by measuring the absorption at 540 nm.
# [4] = test system: coagulation in artificial lung; assay: Extracorporeal circulation (veno-venous ECMO, artificial lung) in rabbits
# Method: New Zealand white rabbits of 3.2–4.2 kg (Charles River) were anesthetized via intramuscular injections of ketamine (30 mg kg^−1) and xylazine (5 mg kg^−1). One of the ear veins was catheterized via a 24G winged catheter, and the rabbits were intubated with a 3.0 endotracheal tube. The animals were kept anesthetized throughout the four-hour experiment via inhaled isoflurane (2%) and were ventilated with a peak inspiratory pressure (PIP) of < 20 cmH2O, positive end expiratory pressure of 5 mmHg, tidal volume of 4–6 ml kg^−1, and a respiratory rate of 22–60 breaths per min. Tidal volume and respiratory rate were adjusted to maintain normal arterial blood gases and the listed PIP. Phenylephrine was applied intravenously at a rate of 0.5–5 μg kg^−1 min^−1 to maintain blood pressure. For monitoring blood pressure and collecting blood samples, the rabbits’ right or left carotid arteries were cannulated using a 16-gauge angiocatheter (Becton Dickinson) and were secured with silk ties. The device and circuit were first primed with filtered CO2 and then with saline (NaCl, 0.9% [w/v]) containing solumedrol (30 mg kg^−1). At this point, rabbits of the inhibitor-treated group were injected with 2 mg kg^−1 of FXII900 as a 2 mM solution in PBS (pH 7.4) via the ear vein and the circuit was connected to the rabbits via a venous/venous ECMO configuration using a 14-gauge angiocatheter (Becton Dickinson) and a 6″ pressure tubing that was cut to length from a 24″ pressure tubing (Edwards Lifesciences) in the right and left internal jugular veins, respectively. The circuit was placed in a roller pump (Cobe), and the blood flow was set to 45 ml per min. After connecting the extracorporeal circuit, rabbits of the inhibitor-treated group were infused with 0.075 mg kg^−1 min^−1 FXII900 via the ear vein for the entire duration of the study. Rabbits treated with heparin were initially infused with 60 IU h^−1 (100 IU ml^−1) starting before connection to the circuit. The drip rate was adjusted based on the following nomogram to maintain the ACT in a range between 220 and 300 s. ACT > 320 s: decrease infusion rate by 12 IU h^−1, 320 s > ACT > 300 s: decrease infusion rate by 6 IU h^−1, 300 s > ACT > 220 s: maintain heparin infusion rate, 220 s > ACT > 200 s: increase infusion rate by 6 IU h^−1, 200 s > ACT > 180 s: increase infusion rate by 12 IU h^−1, ACT < 180 s bolus 100 U (1 ml). After four hours, the animals were euthanized by potassium chloride (2 mg kg^−1, IV). At the end of the experiment, 5 ml of heparin was run through the artificial lung while it was still connected to the rabbits.
# [5] = repeat study, 20 min, heparin 200 IU kg^−1, n = 10
# [6] = ECMO 4 h, FXII900 2 mg kg^−1 bolus + 0.075 mg kg^−1 min^−1, heparin to ACT 220–300 s
Compound,IC50 [1],"Clot (time to clot formation), individual mice ([2]; 200 U kg-1)","Occlusion (time to full occlusion), individual mice ([2]; 200 U kg-1)","mice showing blood clotting [2, 5]","mice showing vessel occlusion [2, 5]",bleeding time ([3]; 30 min monitored),blood loss [3],"aPTT prolongation [4, 6]","activated clotting time (ACT) prolongation [4, 6]","bleeding time prolongation ([4]; ECMO, all time points)","volume of the clot in relation to the device volume ([4]; ECMO, end of experiment)","bleeding time (ear incision) ([4]; ECMO, throughout the experiment)"
"NC(N)=NCCC[C@H](NC(=O)[C@H](Cc1ccccc1)NC(=O)[C@H]1CCCN1)C(=O)CCl [PCK, H-D-Pro-Phe-Arg-chloromethylketone] (HELM PEPTIDE1{[dP].F.R.[ClC[*:1]]}$$$$V2.0)",180 nM,–,–,–,–,–,–,–,–,–,–,–
heparin,–,10 min (2×) and 15 min (3×) and 13 min,19 min,six,one,bled essentially continuously throughout the monitored 30 min period; also recorded: constantly bleeding throughout the 30 min period,medium to high blood loss; also recorded: either a small (3 mice) or large loss of blood (3 mice); also recorded: lost a large volume of blood,1.5 fold,2 fold,2 fold,5%,5 to 10 min
